Results taken from paper PMC10004634 (PLOS ONE, 2023).

Tests used:
Assay in all cases: biochemical
Parameters in all cases: KINOMEscan scanMAX competition binding, DNA-tagged kinases, qPCR read-out, percent control at 300 nM
[1] = target: T1, ABL1(Q252H)-nonphosphorylated (Homo sapiens, UniProt P00519, Q252H); conditions: read-out: Percent control / Acalabrutinib
T1 construct: nonphosphorylated

[2] = target: T2, ABL1(T315I)-nonphosphorylated (Homo sapiens, UniProt P00519, T315I); conditions: read-out: Percent control / Acalabrutinib
T2 construct: nonphosphorylated

ASK1 = target: T3, ASK1 (Homo sapiens, UniProt Q99683); conditions: read-out: Percent control / Acalabrutinib
T3 construct: gene MAP3K5

CAMK1 = CAMK1 (Homo sapiens, UniProt Q14012); conditions: read-out: Percent control / Acalabrutinib
EIF2AK1 = EIF2AK1 (Homo sapiens, UniProt Q9BQI3); conditions: read-out: Percent control / Acalabrutinib
NDR2 = target: T4, NDR2 (Homo sapiens, UniProt Q9Y2H1); conditions: read-out: Percent control / Acalabrutinib
T4 construct: gene STK38L

PIK3CA(H1047Y) = PIK3CA(H1047Y) (Homo sapiens, UniProt P42336, H1047Y); conditions: read-out: Percent control / Acalabrutinib
PIK3CG = PIK3CG (Homo sapiens, UniProt P48736); conditions: read-out: Percent control / Acalabrutinib
PRKD3 = PRKD3 (Homo sapiens, UniProt O94806); conditions: read-out: Percent control / Acalabrutinib
TGFBR1 = TGFBR1 (Homo sapiens, UniProt P36897); conditions: read-out: Percent control / Acalabrutinib
p38-gamma = target: T5, p38-gamma (Homo sapiens, UniProt P53778); conditions: read-out: Percent control / Acalabrutinib
T5 construct: gene MAPK12

EGFR(G719S) = EGFR(G719S) (Homo sapiens, UniProt P00533, G719S); conditions: read-out: Percent control / Tirabrutinib
TLK2 = TLK2 (Homo sapiens, UniProt Q86UE8); conditions: read-out: Percent control / Tirabrutinib
CDK5 = CDK5 (Homo sapiens, UniProt Q00535); conditions: read-out: Percent control / Zanubrutinib
CDKL5 = CDKL5 (Homo sapiens, UniProt O76039); conditions: read-out: Percent control / Zanubrutinib
DCAMKL1 = target: T6, DCAMKL1 (Homo sapiens, UniProt O15075); conditions: read-out: Percent control / Zanubrutinib
T6 construct: gene DCLK1

IKK-beta = target: T7, IKK-beta (Homo sapiens, UniProt O14920); conditions: read-out: Percent control / Zanubrutinib
T7 construct: gene IKBKB

MTOR = MTOR (Homo sapiens, UniProt P42345); conditions: read-out: Percent control / Zanubrutinib
PAK2 = PAK2 (Homo sapiens, UniProt Q13177); conditions: read-out: Percent control / Zanubrutinib
PIK3CB = PIK3CB (Homo sapiens, UniProt P42338); conditions: read-out: Percent control / Zanubrutinib
PLK1 = PLK1 (Homo sapiens, UniProt P53350); conditions: read-out: Percent control / Zanubrutinib
ULK2 = ULK2 (Homo sapiens, UniProt Q8IYT8); conditions: read-out: Percent control / Zanubrutinib
VRK2 = VRK2 (Homo sapiens, UniProt Q86Y07); conditions: read-out: Percent control / Zanubrutinib
VRK2, sequence (Q86Y07 whole entry): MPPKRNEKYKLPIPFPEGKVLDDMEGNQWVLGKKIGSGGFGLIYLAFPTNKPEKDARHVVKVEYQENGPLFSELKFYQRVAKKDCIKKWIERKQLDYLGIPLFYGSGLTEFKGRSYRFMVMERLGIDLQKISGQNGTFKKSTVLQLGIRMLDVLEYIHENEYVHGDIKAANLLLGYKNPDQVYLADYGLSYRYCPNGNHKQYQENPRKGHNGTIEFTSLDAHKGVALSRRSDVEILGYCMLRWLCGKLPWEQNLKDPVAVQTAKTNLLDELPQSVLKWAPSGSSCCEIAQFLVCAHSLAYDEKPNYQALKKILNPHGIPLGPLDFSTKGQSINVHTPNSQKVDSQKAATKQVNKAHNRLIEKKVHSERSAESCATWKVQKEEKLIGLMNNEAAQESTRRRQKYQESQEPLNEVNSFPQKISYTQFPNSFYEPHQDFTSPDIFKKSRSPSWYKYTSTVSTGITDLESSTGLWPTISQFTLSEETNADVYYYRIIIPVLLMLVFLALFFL

EIF2AK1, sequence (Q9BQI3 whole entry): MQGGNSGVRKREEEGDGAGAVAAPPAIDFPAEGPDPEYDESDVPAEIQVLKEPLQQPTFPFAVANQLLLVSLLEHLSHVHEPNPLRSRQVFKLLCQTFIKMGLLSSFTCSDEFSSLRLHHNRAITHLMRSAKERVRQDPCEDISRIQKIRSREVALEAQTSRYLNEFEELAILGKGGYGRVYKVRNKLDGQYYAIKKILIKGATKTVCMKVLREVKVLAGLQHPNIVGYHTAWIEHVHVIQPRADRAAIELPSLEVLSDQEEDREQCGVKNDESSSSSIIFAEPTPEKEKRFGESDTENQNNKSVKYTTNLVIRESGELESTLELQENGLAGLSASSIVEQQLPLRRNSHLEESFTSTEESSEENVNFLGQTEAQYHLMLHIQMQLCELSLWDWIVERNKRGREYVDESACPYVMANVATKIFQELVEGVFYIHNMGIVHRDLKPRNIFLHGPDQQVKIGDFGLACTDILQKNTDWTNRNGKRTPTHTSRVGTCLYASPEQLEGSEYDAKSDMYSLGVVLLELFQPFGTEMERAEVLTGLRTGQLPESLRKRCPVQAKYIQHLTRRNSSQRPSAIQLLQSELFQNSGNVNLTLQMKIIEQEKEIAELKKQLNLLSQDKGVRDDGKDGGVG
CDKL5, sequence (O76039 whole entry): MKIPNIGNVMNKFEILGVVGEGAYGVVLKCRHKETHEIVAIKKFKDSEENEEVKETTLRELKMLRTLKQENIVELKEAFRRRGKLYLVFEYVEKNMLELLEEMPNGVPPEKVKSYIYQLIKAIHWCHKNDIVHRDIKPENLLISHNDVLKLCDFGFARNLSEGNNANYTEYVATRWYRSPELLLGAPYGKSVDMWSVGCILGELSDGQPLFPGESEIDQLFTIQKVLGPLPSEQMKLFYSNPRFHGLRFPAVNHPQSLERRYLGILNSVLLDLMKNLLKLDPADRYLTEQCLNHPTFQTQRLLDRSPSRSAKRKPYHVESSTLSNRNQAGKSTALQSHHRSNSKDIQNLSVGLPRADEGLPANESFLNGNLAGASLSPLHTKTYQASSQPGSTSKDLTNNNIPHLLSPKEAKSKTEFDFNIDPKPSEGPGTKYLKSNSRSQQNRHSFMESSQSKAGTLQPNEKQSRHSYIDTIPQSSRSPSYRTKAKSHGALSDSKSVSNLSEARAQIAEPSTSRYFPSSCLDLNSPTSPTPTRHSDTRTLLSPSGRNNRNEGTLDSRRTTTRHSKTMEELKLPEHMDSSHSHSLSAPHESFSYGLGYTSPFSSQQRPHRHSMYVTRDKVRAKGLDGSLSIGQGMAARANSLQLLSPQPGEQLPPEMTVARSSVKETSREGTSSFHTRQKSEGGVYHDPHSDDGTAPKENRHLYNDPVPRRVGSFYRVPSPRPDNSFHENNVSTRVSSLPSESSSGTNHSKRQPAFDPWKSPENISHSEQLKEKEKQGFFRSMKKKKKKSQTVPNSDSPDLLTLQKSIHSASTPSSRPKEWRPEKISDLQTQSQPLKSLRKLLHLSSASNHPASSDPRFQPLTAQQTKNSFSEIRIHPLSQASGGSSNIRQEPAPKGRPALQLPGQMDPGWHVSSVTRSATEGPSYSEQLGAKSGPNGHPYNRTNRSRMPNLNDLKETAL
PIK3CA(H1047Y), sequence (P42336 whole entry H1047Y): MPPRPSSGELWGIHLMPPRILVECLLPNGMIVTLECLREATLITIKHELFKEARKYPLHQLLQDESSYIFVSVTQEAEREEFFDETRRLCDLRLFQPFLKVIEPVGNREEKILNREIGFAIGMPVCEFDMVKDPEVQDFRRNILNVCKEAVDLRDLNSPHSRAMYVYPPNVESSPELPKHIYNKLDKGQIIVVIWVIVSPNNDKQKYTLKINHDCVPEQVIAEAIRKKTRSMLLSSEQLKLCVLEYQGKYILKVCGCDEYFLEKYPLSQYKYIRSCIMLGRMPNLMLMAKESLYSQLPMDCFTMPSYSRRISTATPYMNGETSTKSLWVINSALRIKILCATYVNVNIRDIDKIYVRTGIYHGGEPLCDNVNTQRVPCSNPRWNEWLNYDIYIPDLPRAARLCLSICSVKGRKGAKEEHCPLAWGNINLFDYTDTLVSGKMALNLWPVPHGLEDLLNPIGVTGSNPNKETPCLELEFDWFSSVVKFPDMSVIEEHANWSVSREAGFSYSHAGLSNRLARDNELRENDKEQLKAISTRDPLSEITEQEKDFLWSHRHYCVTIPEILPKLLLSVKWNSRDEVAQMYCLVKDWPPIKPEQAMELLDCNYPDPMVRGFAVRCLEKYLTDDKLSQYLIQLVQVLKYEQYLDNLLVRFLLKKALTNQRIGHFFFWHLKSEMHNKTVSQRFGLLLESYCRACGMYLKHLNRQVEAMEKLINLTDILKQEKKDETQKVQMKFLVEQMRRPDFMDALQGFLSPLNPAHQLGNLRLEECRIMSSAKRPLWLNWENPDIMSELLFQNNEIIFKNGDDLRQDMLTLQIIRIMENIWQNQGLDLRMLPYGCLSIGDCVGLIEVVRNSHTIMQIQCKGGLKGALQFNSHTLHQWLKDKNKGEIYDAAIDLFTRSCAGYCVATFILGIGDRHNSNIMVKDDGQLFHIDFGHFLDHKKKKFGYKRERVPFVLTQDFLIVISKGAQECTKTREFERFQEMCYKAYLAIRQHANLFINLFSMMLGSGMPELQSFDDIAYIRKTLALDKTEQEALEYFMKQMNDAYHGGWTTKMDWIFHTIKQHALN
T4 sequence (Q9Y2H1 whole entry): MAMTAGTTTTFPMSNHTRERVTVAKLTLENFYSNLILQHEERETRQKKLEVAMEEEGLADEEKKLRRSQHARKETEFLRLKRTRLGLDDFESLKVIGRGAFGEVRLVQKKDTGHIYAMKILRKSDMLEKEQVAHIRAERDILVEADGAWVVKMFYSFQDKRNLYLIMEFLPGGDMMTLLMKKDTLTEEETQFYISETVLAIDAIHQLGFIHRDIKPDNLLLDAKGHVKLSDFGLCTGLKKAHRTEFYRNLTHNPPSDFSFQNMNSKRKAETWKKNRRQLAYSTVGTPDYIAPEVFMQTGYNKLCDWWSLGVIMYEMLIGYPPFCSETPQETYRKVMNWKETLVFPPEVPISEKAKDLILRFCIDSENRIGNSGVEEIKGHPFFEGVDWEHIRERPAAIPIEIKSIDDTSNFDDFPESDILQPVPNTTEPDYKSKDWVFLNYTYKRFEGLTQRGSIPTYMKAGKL
PAK2, sequence (Q13177 whole entry): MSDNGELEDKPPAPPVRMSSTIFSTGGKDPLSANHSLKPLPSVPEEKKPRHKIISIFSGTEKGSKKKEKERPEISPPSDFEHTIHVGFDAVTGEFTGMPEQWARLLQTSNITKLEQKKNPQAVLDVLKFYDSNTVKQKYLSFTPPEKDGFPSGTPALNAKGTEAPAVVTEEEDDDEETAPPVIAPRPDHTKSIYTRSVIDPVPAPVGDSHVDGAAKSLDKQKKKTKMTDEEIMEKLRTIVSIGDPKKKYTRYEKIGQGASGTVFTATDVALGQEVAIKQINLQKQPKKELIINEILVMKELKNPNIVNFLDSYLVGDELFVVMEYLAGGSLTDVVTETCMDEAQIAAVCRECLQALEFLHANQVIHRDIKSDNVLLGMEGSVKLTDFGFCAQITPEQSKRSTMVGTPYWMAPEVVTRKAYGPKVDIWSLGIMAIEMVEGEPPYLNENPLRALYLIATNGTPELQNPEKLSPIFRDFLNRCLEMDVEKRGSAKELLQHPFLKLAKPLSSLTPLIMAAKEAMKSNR
TGFBR1, sequence (P36897 whole entry): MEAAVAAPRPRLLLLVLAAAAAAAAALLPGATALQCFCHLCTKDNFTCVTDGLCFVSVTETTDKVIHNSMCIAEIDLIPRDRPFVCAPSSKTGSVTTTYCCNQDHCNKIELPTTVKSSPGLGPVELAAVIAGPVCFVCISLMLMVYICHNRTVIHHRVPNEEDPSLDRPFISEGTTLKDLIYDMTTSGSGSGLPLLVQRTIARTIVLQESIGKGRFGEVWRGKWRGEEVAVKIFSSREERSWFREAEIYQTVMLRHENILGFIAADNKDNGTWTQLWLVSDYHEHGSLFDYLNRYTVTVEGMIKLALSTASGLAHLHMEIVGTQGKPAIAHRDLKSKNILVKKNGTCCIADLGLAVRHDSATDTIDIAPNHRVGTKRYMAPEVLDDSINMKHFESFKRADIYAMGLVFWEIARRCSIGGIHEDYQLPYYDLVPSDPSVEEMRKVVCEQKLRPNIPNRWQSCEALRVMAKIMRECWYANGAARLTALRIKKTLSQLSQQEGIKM
CAMK1, sequence (Q14012 whole entry, looked up): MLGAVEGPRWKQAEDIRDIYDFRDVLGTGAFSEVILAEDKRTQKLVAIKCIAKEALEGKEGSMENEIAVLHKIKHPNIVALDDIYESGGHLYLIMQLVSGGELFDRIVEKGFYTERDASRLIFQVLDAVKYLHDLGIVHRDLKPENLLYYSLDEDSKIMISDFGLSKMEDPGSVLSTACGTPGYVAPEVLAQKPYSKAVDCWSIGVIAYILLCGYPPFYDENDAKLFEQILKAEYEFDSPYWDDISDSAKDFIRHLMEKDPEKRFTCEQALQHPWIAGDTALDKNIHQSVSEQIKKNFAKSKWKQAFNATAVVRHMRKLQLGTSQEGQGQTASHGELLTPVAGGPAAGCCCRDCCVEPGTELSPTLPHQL

## CC#CC(=O)N1CCC[C@H]1c1nc(-c2ccc(C(=O)Nc3ccccn3)cc2)c2c(N)nccn12 [Acalabrutinib]
[1]
  remaining binding at 0.3 µM: 84%
[2]
  remaining binding at 0.3 µM: 96%
ASK1
  remaining binding at 0.3 µM: 93%
CAMK1
  remaining binding at 0.3 µM: 58%
EIF2AK1
  remaining binding at 0.3 µM: 85%
NDR2
  remaining binding at 0.3 µM: 99%
PIK3CA(H1047Y)
  remaining binding at 0.3 µM: 70%
PIK3CG
  remaining binding at 0.3 µM: 99%
PRKD3
  remaining binding at 0.3 µM: 81%
TGFBR1
  remaining binding at 0.3 µM: 96%
p38-gamma
  remaining binding at 0.3 µM: 75%

## CC#CC(=O)N1CC[C@@H](n2c(=O)n(-c3ccc(Oc4ccccc4)cc3)c3c(N)ncnc32)C1 [Tirabrutinib]
EGFR(G719S)
  remaining binding at 0.3 µM: 85%
TLK2
  remaining binding at 0.3 µM: 90%

## C=CC(=O)N1CCC([C@@H]2CCNc3c(C(N)=O)c(-c4ccc(Oc5ccccc5)cc4)nn32)CC1 [Zanubrutinib]
CDK5
  remaining binding at 0.3 µM: 98%
CDKL5
  remaining binding at 0.3 µM: 100%
DCAMKL1
  remaining binding at 0.3 µM: 100%
IKK-beta
  remaining binding at 0.3 µM: 100%
MTOR
  remaining binding at 0.3 µM: 88%
PAK2
  remaining binding at 0.3 µM: 83%
PIK3CB
  remaining binding at 0.3 µM: 98%
PLK1
  remaining binding at 0.3 µM: 100%
ULK2
  remaining binding at 0.3 µM: 99%
VRK2
  remaining binding at 0.3 µM: 97%
